Assay results taken from US20040053822A1, “Inducing cellular immune responses to mage2/3 using peptide and nucleic acid compositions” (priority 2002, published 2004).
pIC50: −log10 of the molar value.

Legend:
HLA-B*0702 = HLA-B*0702 (Homo sapiens, UniProt P01889); assay: Purified HLA class I peptide binding assay, B*0702; settings: binding affinity, HLA-B7 supermotif-bearing peptides
HLA-B*3501 = HLA-B*3501 (Homo sapiens, UniProt P01889, A329T/A93T/A95T/C349S/D201E/D98Y/E176V/E187L/E204Q/E69T/I218V/K202T/L119I/Q94N/R155S/R180L/S121R/S35A/S48A/T118I/V127L/V306I/V36M/Y140S/Y91F); assay: Purified HLA class I peptide binding assay, B*3501; settings: binding affinity, HLA-B7 supermotif-bearing peptides
HLA-B*5101 (B51) = HLA-B*5101 (B51) (Homo sapiens, UniProt P01889, A329T/A93T/A95T/C349S/D138N/D201E/D98Y/E187L/E204Q/E69T/G107R/I218V/K202T/L105A/L119W/N104I/Q94N/R106L/R155S/R180L/S101N/S121T/S35A/S48A/V306I/V36M/Y195H/Y91F); assay: Purified HLA class I peptide binding assay, B51; settings: binding affinity, HLA-B7 supermotif-bearing peptides; read-out: B*5101 nM
HLA-B*5301 = HLA-B*5301 (Homo sapiens, UniProt P01889, A329T/A93T/A95T/C349S/D201E/D98Y/E176V/E187L/E204Q/E69T/G107R/I218V/K202T/L105A/L119I/N104I/Q94N/R106L/R155S/R180L/S101N/S121R/S35A/S48A/T118I/V127L/V306I/V36M/Y140S/Y91F); assay: Purified HLA class I peptide binding assay, B*5301; settings: binding affinity, HLA-B7 supermotif-bearing peptides
HLA-B*5401 = HLA-B*5401 (Homo sapiens, UniProt P01889, A329T/C349S/D138N/D201E/E176V/E187T/E204Q/E69G/I76V/K202T/L119W/R155S/R180L/S121T/S35A/S48A/V127L/V306I/V36M/Y140L); assay: Purified HLA class I peptide binding assay, B*5401; settings: binding affinity, HLA-B7 supermotif-bearing peptides

Row | Structure (SMILES) | pIC50 (HLA-B*0702) | pIC50 (HLA-B*3501) | pIC50 (HLA-B*5101 (B51)) | pIC50 (HLA-B*5301) | pIC50 (HLA-B*5401)
1 | CC[C@H](C)[C@H](NC(=O)[C@H](CC(C)C)NC(=O)[C@H](CC(C)C)NC(=O)CNC(=O)[C@@H](NC(=O)[C@H](CCCCN)NC(=O)[C@@H]1CCCN1C(=O)[C@@H](N)Cc1ccccc1)[C@@H](C)O)C(=O)O | 6.87 | < 5.00 | 7.80 | 5.48 | 7.43
2 | CC[C@H](C)[C@H](NC(=O)[C@@H](NC(=O)[C@H](CC(C)C)NC(=O)[C@H](CC(C)C)NC(=O)CNC(=O)[C@@H](NC(=O)[C@H](CCCCN)NC(=O)[C@@H]1CCCN1C(=O)[C@@H](N)Cc1ccccc1)[C@@H](C)O)[C@@H](C)CC)C(=O)O | – | < 5.00 | 7.49 | 6.58 | 8.00
3 | CC[C@H](C)[C@H](NC(=O)[C@H](CO)NC(=O)[C@H](CCC(N)=O)NC(=O)[C@H](CO)NC(=O)[C@H](Cc1c[nH]c2ccccc12)NC(=O)[C@H](CC(C)C)NC(=O)[C@@H]1CCCN1C(=O)[C@@H](N)Cc1ccccc1)C(=O)O | 6.91 | 5.99 | – | 6.61 | 7.82
4 | CC[C@H](C)[C@H](NC(=O)[C@H](CO)NC(=O)[C@H](CO)NC(=O)[C@H](C)NC(=O)CNC(=O)[C@H](CCC(N)=O)NC(=O)[C@@H]1CCCN1C(=O)[C@@H](N)Cc1ccccc1)C(=O)O | – | < 5.00 | – | 5.52 | 6.40
5 | CC[C@H](C)[C@H](NC(=O)[C@H](CC(C)C)NC(=O)[C@H](C)NC(=O)[C@H](CCCNC(=N)N)NC(=O)[C@@H]1CCCN1C(=O)[C@@H](N)Cc1ccccc1)C(=O)N[C@@H](CCC(=O)O)C(=O)N[C@H](C(=O)N[C@@H](CO)C(=O)N[C@@H](Cc1ccc(O)cc1)C(=O)N[C@H](C(=O)O)C(C)C)[C@@H](C)O | 8.20 | 5.35 | 6.89 | 5.11 | 8.15
6 | CC[C@H](C)[C@H](NC(=O)[C@H](Cc1ccc(O)cc1)NC(=O)[C@H](CO)NC(=O)[C@@H](NC(=O)[C@H](CCC(=O)O)NC(=O)[C@@H](NC(=O)[C@H](CC(C)C)NC(=O)[C@H](C)NC(=O)[C@H](CCCNC(=N)N)NC(=O)[C@@H]1CCCN1C(=O)[C@@H](N)Cc1ccccc1)C(C)C)[C@@H](C)O)C(=O)O | – | 5.26 | 6.93 | 6.21 | 7.23
7 | CC(C)C[C@H](NC(=O)[C@H](C)NC(=O)[C@H](CCCNC(=N)N)NC(=O)[C@@H]1CCCN1C(=O)[C@@H](N)Cc1ccccc1)C(=O)N[C@H](C(=O)N[C@@H](CCC(=O)O)C(=O)N[C@H](C(=O)N[C@@H](CO)C(=O)N[C@@H](Cc1ccc(O)cc1)C(=O)N[C@H](C(=O)O)C(C)C)[C@@H](C)O)C(C)C | 8.38 | 5.37 | 6.69 | < 5.00 | 8.00
8 | CC[C@H](C)[C@H](NC(=O)[C@H](CC(C)C)NC(=O)[C@H](CC(=O)O)NC(=O)[C@H](CCC(N)=O)NC(=O)[C@H](CCSC)NC(=O)[C@H](CC(C)C)NC(=O)[C@H](CC(C)C)NC(=O)[C@H](CCCCN)NC(=O)[C@H](CCCNC(=N)N)NC(=O)[C@@H]1CCCN1C(=O)[C@@H](N)Cc1ccccc1)C(=O)O | 7.07 | < 5.00 | 6.44 | – | 7.00
9 | CC[C@H](C)[C@H](NC(=O)[C@@H]1CCCN1C(=O)[C@H](Cc1ccc(O)cc1)NC(=O)[C@H](CC(N)=O)NC(=O)[C@H](CCSC)NC(=O)[C@@H](NC(=O)[C@@H](NC(=O)[C@@H]1CCCN1C(=O)[C@@H](N)Cc1ccccc1)[C@@H](C)O)[C@@H](C)O)C(=O)O | 7.23 | 7.66 | – | 8.07 | 8.82
10 | CSCC[C@H](NC(=O)[C@@H](NC(=O)[C@@H](NC(=O)[C@@H]1CCCN1C(=O)[C@@H](N)Cc1ccccc1)[C@@H](C)O)[C@@H](C)O)C(=O)N[C@@H](CC(N)=O)C(=O)N[C@@H](Cc1ccc(O)cc1)C(=O)N1CCC[C@H]1C(=O)N[C@@H](CC(C)C)C(=O)N[C@@H](Cc1c[nH]c2ccccc12)C(=O)O | 6.66 | – | < 5.00 | – | 7.38
